Values of other authors, collected in patent US5349105A, “Alkyl, alkoxy and thioalkoxy substituted diphenyl acetylenes having retinoid like activity” (Allergan, Inc., priority 1993, dated 1994).

System: ornithine decarboxylase (ODC)
Settings: literature background

SMILES	inhibition of induction of ODC activity by TPA (in words) (retinoic acid)	induction of ODC activity (in words) (TPA as inducer)
CC1=C(/C=C/C(C)=C/C=C/C(C)=C/C(=O)O)C(C)(C)CCC1 [Retinoic acid]	inhibits this induction of ODC activity by TPA	
CCCCCCCCCCCCCC(=O)O[C@@H]1[C@@H](C)[C@@]2(O)[C@@H](C=C(CO)C[C@]3(O)C(=O)C(C)=C[C@@H]23)[C@@H]2C(C)(C)[C@]12OC(C)=O [12-0-tetradecanoyl-phorbol-13-acetate]		induces ODC activity
